Experiment [1] has as its system HCV genotype 1b replicon. Nature of the experiment: HCV replicon assay, genotype 1b replicon EC50. The experiment is classed as cell-based, Hepatitis C virus. To be noted: Hepatitis C virus, genotype 1b replicon, read-out: EC50 [gt-1b]. In short, it runs like this:
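Cells harbouring a stable replicon are grown under G418 selection, then plated with test compound in G418-free medium for 24-48 hours. After washing and lysis, RNA or luciferase signal is measured and expressed as percent of DMSO control to give EC50.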
(Replicon systems follow genome replication, usually without infectious particles.)

The target of experiment [2] is HCV NS3/4A protease genotype 1b (Hepatitis C virus genotype 1b, UniProt P26663). Kind of experiment: HCV NS3/4A protease time-resolved fluorescence (TRF) assay, Ki against genotype 1b. The experiment is classed as biochemical. The note with it: IC50 [gt-1b] (nM), NS3/4A genotype 1b, enzyme 0.2 nM. Put shortly:
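Enzyme 0.2 nM 1b / 0.4 nM A156T / 0.025 nM 3a; 30 min preinc. w/ cpd; 25 nM TRF peptide; 2.5 h RT; ex 340/em 615 time-delayed; 4-param IC50 → Ki = IC50/(1+[S]/KM).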

Results on 13 compounds are retold here after patent publication US8987195B2 (priority 2012, dated 2015).

Read-outs that look alike come from different tables or passages of the source.

The EC50 is the midpoint of the concentration-response curve. By IC50 is commonly meant the concentration at which inhibition is half-maximal.

With `COc1ccc2nc(C)c3c(c2n1)CC[C@]1(C[C@H]2C(=O)N[C@]4(C(=O)NS(=O)(=O)C5(C)CC5)C[C@H]4/C=C\CCCCC[C@H](NC(=O)OC(C)(C)C)C(=O)N2C1)O3` [Example 11, tert-butyl (2R,6S,13aS,14aR,16aS,Z)-2′-methoxy-6′-methyl-14a-(1-methylcyclopropylsulfonylcarbamoyl)-5,16-dioxo-3,5,6,7,8,9,9′,10,10′,11,13a,14,14a,15,16,16a-hexadecahydro-1H-spiro[cyclopropa[e]pyrrolo[1,2-a][1,4]diazacyclopentadecine-2,8′-pyrano[2,3-c][1,5]naphthyridine]-6-ylcarbamate], in experiment [1], the EC50 was determined as 2.71 nM. The same compound had an IC50 in experiment [2] of 0.007 nM.

Take `COc1ccc2nc(C3CC3)c3c(c2c1)C(F)(F)C[C@]1(C[C@H]2C(=O)N[C@]4(C(=O)NS(=O)(=O)C5(C)CC5)C[C@H]4/C=C\CCCCC[C@H](NC(=O)OC(C)(C)C)C(=O)N2C1)O3` [Example 19, tert-Butyl (2S,6S,13aS,14aR,16aS,Z)-5′-cyclopropyl-1′,1′-difluoro-9′-methoxy-14a-(1-methylcyclopropylsulfonylcarbamoyl)-5,16-dioxo-1′,2′,3,5,6,7,8,9,10,11,13a,14,14a, 15,16,16a-hexadecahydro-1H-spiro[cyclopropa[e]pyrrolo[1,2-a][1,4]diazacyclopentadecine-2,3′-pyrano[2,3-c]quinoline]-6-ylcarbamate]: the EC50 in experiment [1] (K+ salt) is 1.98 nM. The IC50 in experiment [2] (K+ salt) is 0.018 nM.

As to `COc1ccc2nc(C)c3c(c2c1)C(F)(F)C[C@]1(C[C@H]2C(=O)N[C@]4(C(=O)NS(=O)(=O)C5(C)CC5)C[C@H]4/C=C\CCCCC[C@H](NC(=O)OC(C)(C)C)C(=O)N2C1)O3` [Example 20, tert-Butyl (2S,6S,13aS,14aR,16aS,Z)-1′,1′-difluoro-9′-methoxy-5′-methyl-14a-(1-methylcyclopropylsulfonylcarbamoyl)-5,16-dioxo-1′,2′,3,5,6,7,8,9,10,11,13a,14,14a,15, 16,16a-hexadecahydro-1H-spiro[cyclopropa[e]pyrrolo[1,2-a][1,4]diazacyclopentadecine-2,3′-pyrano[2,3-c]quinoline]-6-ylcarbamate], the EC50 in experiment [1] (K+ salt) was 1.78 nM. The IC50 in experiment [2] (K+ salt) turned out to be 0.009 nM.

`Cc1nc2ccccc2c2c1O[C@@]1(C[C@H]3C(=O)N[C@]4(C(=O)NS(=O)(=O)C5(C)CC5)C[C@H]4/C=C\CCCCC[C@H](NC(=O)OC(C)(C)C)C(=O)N3C1)CC2(F)F` [Example 25, tert-Butyl (2S,6S,13aS,14aR,16aS,Z)-1′,1′-difluoro-5′-methyl-14a-(1-methylcyclopropylsulfonylcarbamoyl)-5,16-dioxo-1′,2′,3,5,6,7,8,9,10,11,13a,14,14a,15,16,16a-hexadecahydro-1H-spiro[cyclopropa[e]pyrrolo[1,2-a][1,4]diazacyclopentadecine-2,3′-pyrano[2,3-c]quinoline]-6-ylcarbamate]: the EC50 in experiment [1] amounted to 1.11 nM. In experiment [2], this compound yielded a concentration for half-maximal inhibition (IC50) of 0.016 nM.

Turning to `Cc1nc2ccccc2c2c1O[C@]1(C=C2)C[C@H]2C(=O)N[C@]3(C(=O)NS(=O)(=O)C4CC4)C[C@H]3/C=C\CCCCC[C@H](NC(=O)OC(C)(C)C)C(=O)N2C1` [Example 26, tert-Butyl (2S,6S,13aS,14aR,16aS,Z)-14a-(cyclopropylsulfonylcarbamoyl)-5′-methyl-5,16-dioxo-3,5,6,7,8,9,10,11,13a,14,14a,15,16,16a-tetradecahydro-1H-spiro [cyclopropa[e]pyrrolo[1,2-a][1,4]diazacyclopentadecine-2,3′-pyrano[2,3-c]quinoline-]-6-ylcarbamate], the EC50 in experiment [1] stood at 1.34 nM. The compound also registered an IC50 in experiment [2] of 0.013 nM.

For `COc1ccc2nc(C(F)F)c3c(c2c1Cl)CC[C@]1(C[C@H]2C(=O)N[C@]4(C(=O)NS(=O)(=O)C5(C)CC5)C[C@H]4/C=C\CCCCC[C@H](NC(=O)OC(C)(C)C)C(=O)N2C1)O3` [Example 28, tert-Butyl [(2R,6S,12Z,13aS,14aR,16aS)-10′-chloro-5′-(difluoromethyl)-9′-methoxy-14a-{[(1-methylcyclopropyl)sulfonyl]carbamoyl}-5,16-dioxo-1,1′,2′,5,6,7,8,9,10,11,13a,14,14a,15,16,16a-hexadecahydrospiro[cyclopropa[e]pyrrolo[1,2-a][1,4]diazacyclopentadecine-2,3′-pyrano[2,3-c]quinolin]-6-yl]carbamate], the EC50 in experiment [1] turned out to be 14.7 nM. The compound also yielded an IC50 in experiment [2] of 0.016 nM.

As to `CC(C)(C)OC(=O)N[C@H]1CCCCC/C=C\[C@@H]2C[C@@]2(C(=O)NS(=O)(=O)C2(C)CC2)NC(=O)[C@@H]2C[C@]3(CCc4c(c(C5CC5)nc5ccc6c(c45)OCO6)O3)CN2C1=O` [Example 29, tert-butyl (2′R,6′S,13a′S,14a′R,16a′S,Z)-7-cyclopropyl-14a′-(1-methylcyclopropylsulfonylcarbamoyl)-5′,16′-dioxo-3′,5′,6′,7′,8′,9′,10,10′,11,11′,13a′,14′, 14a′,15′,16′,16a′-hexadecahydro-1′H-spiro[[1,3]dioxolo[4,5-f]pyrano[2,3-c]quinoline-9,2′-cyclopropa[e]pyrrolo[1,2-a][1,4]diazacyclopentadecine]-6′-ylcarbamate], the EC50 in experiment [1] stood at 0.608 nM. Moreover, in experiment [2], inhibition was half-maximal at 0.021 nM (IC50).

Consider `CC(C)(C)OC(=O)N[C@H]1CCCCC/C=C\[C@@H]2C[C@@]2(C(=O)NS(=O)(=O)C2(C)CC2)NC(=O)[C@@H]2C[C@]3(CCc4c(c(C(F)(F)F)nc5c(Cl)cccc45)O3)CN2C1=O` [Example 31, tert-butyl ((2R,6S,13aS,14aR,16aS,Z)-7′-chloro-14a-(((1-methylcyclopropyl)sulfonyl)carbamoyl)-5,16-dioxo-5′-(trifluoromethyl)-1′,2′,3,5,6,7,8,9,10,11,13a,14,14a,15, 16,16a-hexadecahydro-1H-spiro[cyclopropa[e]pyrrolo[1,2-a][1,4]diazacyclopentadecine-2,3′-pyrano[2,3-c]quinolin]-6-yl)carbamate], for which the half-maximal effective concentration (EC50) in experiment [1] came out at 1.56 nM. In experiment [2], this compound returned an IC50 of 0.02 nM.

As for `COc1ccc2nc(C(F)(F)F)c3c(c2n1)C(F)C[C@]1(C[C@H]2C(=O)N[C@]4(C(=O)NS(=O)(=O)C5(C)CC5)C[C@H]4/C=C\CCCCC[C@H](NC(=O)OC(C)(C)C)C(=O)N2C1)O3` (stereo partly drawn) [Example 33, tert-butyl ((2S,6S,13aS,14aR,16aS,Z)-10′-fluoro-2′-methoxy-14a-(((1-methylcyclopropyl)sulfonyl)carbamoyl)-5,16-dioxo-6′-(trifluoromethyl)-3,5,6,7,8,9,9′,10,10′, 11,13a,14,14a,15,16,16a-hexadecahydro-1H-spiro[cyclopropa[e]pyrrolo[1,2-a][1,4]diazacyclopentadecine-2,8′-pyrano[2,3-c][1,5]naphthyridin]-6-yl)carbamate], the EC50 in experiment [1] was determined as 1.65 nM. Further, the half-inhibitory concentration (IC50) in experiment [2] came out at 0.042 nM.

Regarding `COc1ccc2nc(C)c3c(c2c1)CC[C@]1(C[C@H]2C(=O)N[C@]4(C(=O)NS(=O)(=O)C5(C)CC5)C[C@H]4CCCCCCC[C@H](NC(=O)OC(C)(C)C)C(=O)N2C1)O3` [Example 34, tert-Butyl ((2R,6S,13aR,14aR,16aS)-9′-methoxy-5′-methyl-14a-(((1-methylcyclopropyl)sulfonyl)carbamoyl)-5,16-dioxo-1′,2′,3,5,6,7,8,9,10,11,12,13,13a,14,14a,15, 16,16a-octadecahydro-1H-spiro[cyclopropa[e]pyrrolo[1,2-a][1,4]diazacyclopentadecine-2,3′-pyrano[2,3-c]quinolin]-6-yl)carbamate], the EC50 in experiment [1] turned out to be 1.79 nM. Besides, the IC50 in experiment [2] was 0.013 nM.

On to `COc1ccc2nc(C)c3c(c2c1)CC[C@]1(C[C@H]2C(=O)N[C@]4(C(=O)NS(=O)(=O)C5(C)CC5)C[C@H]4CCCCCCC[C@H](NC(=O)OC(C)(C)C(F)(F)F)C(=O)N2C1)O3` [Example 35], for which, in experiment [1] (GETYPE1B|GT1B), the EC50 was 1.69 nM. In experiment [2], this compound showed an IC50 of 0.016 nM.

`CCc1nc2ccc(OC)cc2c2c1O[C@]1(C[C@H]2F)C[C@H]2C(=O)N[C@]3(C(=O)NS(=O)(=O)C4(C)CC4)C[C@H]3/C=C\CCCCC[C@H](NC(=O)OCC(C)(C)C)C(=O)N2C1` [Example 36, Neopentyl((1′R,2S,6S,13aS,14aR,16aS,Z)-5′-ethyl-1′-fluoro-9′-methoxy-14a-(((1-methylcyclopropyl)sulfonyl)carbamoyl)-5,16-dioxo-1′,2′,3,5,6,7,8,9,10,11,13a,14,14a, 15,16,16a-hexadecahydro-1H-spiro[cyclopropa[e]pyrrolo[1,2-a][1,4]diazacyclopentadecine-2,3′-pyrano[2,3-c]quinolin]-6-yl)carbamate]: the EC50 in experiment [1] turned out to be 1.2 nM. Moreover, the IC50 in experiment [2] is 0.009 nM.

As for `CC(C)(C)OC(=O)N[C@H]1CCCCC/C=C\[C@@H]2C[C@@]2(C(=O)NS(=O)(=O)C2(C)CC2)NC(=O)[C@@H]2C[C@]3(CCc4c(c(CN5CCOCC5)nc5ccccc45)O3)CN2C1=O` [Example 38, tert-butyl ((2R,6S,13aS,14aR,16aS,Z)-14a-(((1-methylcyclopropyl)sulfonyl)carbamoyl)-5′-(morpholinomethyl)-5,16-dioxo-1′,2′,3,5,6,7,8,9,10,11,13a,14,14a,15,16,16a-hexadecahydro-1H-spiro[cyclopropa[e]pyrrolo[1,2-a][1,4]diazacyclopentadecine-2,3′-pyrano[2,3-c]quinolin]-6-yl)carbamate], in experiment [1], the EC50 worked out at 22.1 nM. This compound also came in with a 50% inhibitory concentration (IC50) in experiment [2] of 0.058 nM.
